Here are results for 19 compounds from US8178548B2, “Anti-infective agents and uses thereof” (priority 2007, dated 2012).

Read-outs that look alike come from different tables or passages of the source.

For assay [1], the system named is genotype 1b-Con1 subgenomic replicon cell line. The assay is described as follows: HCV Polymerase Replicon Assay, genotype 1b-Con1 (luciferase reporter). The format is cell-based. To be noted: Hepatitis C virus, 72 h, read-out: EC50 1b. (In general: In antiviral work, replicon cells carry a viral genome segment that copies itself.)
The target in assay [2] is T1, HCV polymerase 1A (Δ21 NS5B, H77) (Hepatitis C virus genotype 1a, UniProt P27958).
T1 construct: 20 to 50 nM Δ21 NS5B
In words: biochemical. On the procedure: (§1) Either two-fold serial dilutions (fractional inhibition assay) or a narrower range of dilutions spanning the IC50 of the inhibitor (tight binding assay) of the inhibitors were incubated with 20 mM Tris-Cl pH 7.4, 2 mM MnCl2, 1 mM dithiothreitol, 1 mM ethylene diamine tetraacetic acid (EDTA), 60 to 125 μM GTP and 20 to 50 nM Δ21 NS5B (HCV Strain 1B (BK, Genbank accession number M58335, or H77, Genbank accession number AF011751)) for 15 min at room temperature. The reaction was initiated by the addition of 20 μM CTP, 20 μM ATP, 1 μM ^3H-UTP (10 mCi/umol), 5 nM template RNA and 0.1 U/μl RNase inhibitor (RNasin, Promega), and allowed to proceed for 2 to 4 h at room temperature. Reaction volume was 50 μl. The reaction was terminated by the addition of 1 volume of 4 mM spermine in 10 mM Tris-Cl pH 8.0, 1 mM EDTA. After incubation for at least 15 min at room temperature, the precipitated RNA was captured by filtering through a GF/B filter (Millipore) in a 96 well format. The filter plate was washed three times with 200 μl each of 2 mM spermine, 10 mM Tris-Cl pH 8.0, 1 mM EDTA, and 2 times with ethanol. After air-drying, 30 μl of Microscint 20 scintillation cocktail (Packard) was added to each well, and the retained cpm were determined by scintillation counting. […] Retained cpm were plotted vs. inhibitor concentration and fit to equation 1 using non-linear regression (ref. 1) to obtain the IC50 values: Retained cpm=A[sqrt{(IC50+It−Et)^2+4*IC50*Et}−(IC50+It−Et)]
(§2) Ref. Morrison, J. F. and S. R. Stone. 1985. Approaches to the study and analysis of the inhibition of enzymes by slow- and tight-binding inhibitors. Comments Mol. Cell. Biophys. 2: 347-368.
(§3) The sequence of the template RNA used was: 5′-[…] […] […] […] […] […] […] […] […] […] […] […] […] […] […] […] […]-3′ (SEQ ID NO:1).

Assay [3] addresses T2, HCV polymerase 1B (Δ21 NS5B, HCV Strain 1B BK) (Hepatitis C virus genotype 1b, UniProt P26663).
T2 construct: 20 to 50 nM Δ21 NS5B
In words: biochemical. As to the method: as §1, §2, §3

Assay [4] has as its system genotype 1a-H77 subgenomic replicon cell line. The assay is described as follows: HCV Polymerase Replicon Assay, genotype 1a-H77 (luciferase reporter). Format: cell-based. To be noted: Hepatitis C virus, 72 h, read-out: EC50 1a.
[5] abbreviates: replicon 1b-Con1, luciferase, three days.
Where [6] appears, read: replicon 1a-H77, luciferase, three days.

T1 sequence (P27958 2421-2990, stated change not applied): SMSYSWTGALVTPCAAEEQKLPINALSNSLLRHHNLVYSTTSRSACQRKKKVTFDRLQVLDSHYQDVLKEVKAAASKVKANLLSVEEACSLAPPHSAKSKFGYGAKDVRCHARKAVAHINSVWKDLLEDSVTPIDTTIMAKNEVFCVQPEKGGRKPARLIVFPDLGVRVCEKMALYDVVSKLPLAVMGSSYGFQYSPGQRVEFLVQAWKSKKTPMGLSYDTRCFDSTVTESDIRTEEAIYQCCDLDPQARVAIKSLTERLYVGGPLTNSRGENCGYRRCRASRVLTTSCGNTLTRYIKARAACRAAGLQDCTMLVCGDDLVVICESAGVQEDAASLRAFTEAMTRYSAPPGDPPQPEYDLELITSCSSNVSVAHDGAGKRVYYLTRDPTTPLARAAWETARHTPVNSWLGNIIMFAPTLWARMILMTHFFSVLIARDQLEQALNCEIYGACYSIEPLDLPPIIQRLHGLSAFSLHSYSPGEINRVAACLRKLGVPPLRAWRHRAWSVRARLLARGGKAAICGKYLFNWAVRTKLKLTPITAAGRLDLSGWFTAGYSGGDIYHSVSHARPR
T2 sequence (P26663 2420-2989, stated change not applied): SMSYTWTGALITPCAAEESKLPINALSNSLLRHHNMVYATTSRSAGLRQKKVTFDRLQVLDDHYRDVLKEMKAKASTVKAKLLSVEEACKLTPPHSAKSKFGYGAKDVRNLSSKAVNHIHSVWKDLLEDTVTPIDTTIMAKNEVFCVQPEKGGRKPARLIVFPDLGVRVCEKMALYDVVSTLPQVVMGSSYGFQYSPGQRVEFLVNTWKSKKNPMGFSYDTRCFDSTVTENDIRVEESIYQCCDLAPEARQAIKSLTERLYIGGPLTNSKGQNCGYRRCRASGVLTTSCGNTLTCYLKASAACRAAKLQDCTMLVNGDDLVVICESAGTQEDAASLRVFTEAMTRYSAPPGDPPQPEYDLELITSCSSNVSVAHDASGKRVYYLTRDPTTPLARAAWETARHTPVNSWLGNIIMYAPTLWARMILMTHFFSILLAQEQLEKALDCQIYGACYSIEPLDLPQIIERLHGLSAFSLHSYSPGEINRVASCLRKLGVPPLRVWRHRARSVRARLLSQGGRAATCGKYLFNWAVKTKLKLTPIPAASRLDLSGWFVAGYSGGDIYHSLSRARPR

As usually defined, the EC50 is the concentration needed to bring the measured effect to its halfway point. Usually IC50 stands for the point on the concentration scale where inhibition reaches its midpoint. On to `COc1c(/C=C/c2ccc(NS(C)(=O)=O)cc2)cc(-n2ccc(=O)[nH]c2=O)cc1-c1ccco1` [IB-L1-1.46, (E)-N-(4-(5-(2,4-dioxo-3,4-dihydropyrimidin-1(2H)-yl)-3-(furan-2-yl)-2-methoxystyryl)phenyl)methanesulfonamide], for which the EC50 in assay [1] (setting [5]) was less than 10 nM; in assay [4] (setting [6]) it was 100 to 1000 nM. In addition, the IC50 in assay [2] and in assay [3] was 10 to 100 nM throughout.
Take `CC(C)(C)c1cc(-n2ccc(=O)[nH]c2=O)cc(/C=C/c2ccc(NS(C)(=O)=O)cc2)c1Cl` [IB-L1-1.12, N-(4-{(E)-2-[3-tert-Butyl-2-chloro-5-(2,4-dioxo-3,4-dihydro-2H-pyrimidin-1-yl)-phenyl]-vinyl}-phenyl)-methanesulfonamide]: the half-maximal effective concentration (EC50) in assay [1] (setting [5]) and in assay [4] (setting [6]) was 10 to 100 nM each time. Further, the IC50 in assay [2] is less than 10 nM; in assay [3] it was 10 to 100 nM.
Take `COc1c(/C=C/c2ccc(NS(C)(=O)=O)cc2C(=O)N2CCC2)cc(-n2ccc(=O)[nH]c2=O)cc1C(C)(C)C` [IB-L1-1.22, N-(3-(azetidine-1-carbonyl)-4-{(E)-2-[3-tert-butyl-5-(2,4-dioxo-3,4-dihydro-2H-pyrimidin-1-yl)-2-methoxy-phenyl]-vinyl}-phenyl)-methanesulfonamide]: the results for the EC50 in assay [1] and in assay [4] were less than 10 nM and 10 to 100 nM, respectively. Moreover, the IC50 in assay [2] and in assay [3] was 10 to 100 nM each time.
With `CCOc1c(/C=C/c2ccc(NS(C)(=O)=O)cc2)cc(-n2ccc(=O)[nH]c2=O)cc1C(C)(C)C` [IB-L1-1.30, (E)-N-(4-(3-tert-butyl-5-(2,4-dioxo-3,4-dihydropyrimidin-1(2H)-yl)-2-ethoxystyryl)phenyl)methanesulfonamide], the EC50 in assay [1] (setting [5]) is 10 to 100 nM; in assay [4] (setting [6]) it was 100 to 1000 nM. The IC50 in assay [2] and in assay [3] was 10 to 100 nM in each case.
On to `COc1c(C2CC2c2ccc(NS(C)(=O)=O)cc2)cc(N2CCC(=O)NC2=O)cc1C(C)(C)C` (stereo not shown) [IA-L8-1.1, N-(4-(2-(3-tert-butyl-5-(2,4-dioxotetrahydropyrimidin-1(2H)-yl)-2-methoxyphenyl)cyclopropyl)phenyl)methanesulfonamide], for which the EC50 in assay [1] (setting [5]) and in assay [4] (setting [6]) was 100 to 1000 nM each time. Besides, the IC50 in assay [2] and in assay [3] was 100 to 1000 nM in each case.
Take `COc1c(/C=C/c2ccc(NS(C)(=O)=O)cc2C=O)cc(-n2ccc(=O)[nH]c2=O)cc1C(C)(C)C` [IB-L1-1.6, N-(4-{(E)-2-[3-tert-Butyl-5-(2,4-dioxo-3,4-dihydro-2H-pyrimidin-1-yl)-2-methoxy-phenyl]-vinyl}-3-formyl-phenyl)-methanesulfonamide]: the EC50 in assay [1] and in assay [4] was less than 10 nM throughout. The IC50 is less than 10 nM in assay [2] and 10 to 100 nM in assay [3].
As to `CC(C)(C)c1cc(/C=C/c2ccc(NS(C)(=O)=O)cc2)cc(N2CCC(=O)NC2=O)c1` [IA-L1-1.16, (E)-N-(4-(3-tert-butyl-5-(2,4-dioxotetrahydropyrimidin-1(2H)-yl)styryl)phenyl)methanesulfonamide], the EC50 in assay [1] and in assay [4] was 10 to 100 nM each time. Moreover, the IC50 in assay [2] and in assay [3] was less than 10 nM each time.
`COc1c(/C=C\c2ccc(NS(C)(=O)=O)cc2)cc(N2CCC(=O)NC2=O)cc1C(C)(C)C` [IA-L1-1.20, (Z)-N-(4-(3-tert-butyl-5-(2,4-dioxotetrahydropyrimidin-1(2H)-yl)-2-methoxystyryl)phenyl)methanesulfonamide]: the EC50 in assay [1] and in assay [4] was 10 to 100 nM throughout.
As for `COc1c(/C=C(\F)c2ccc(NS(C)(=O)=O)cc2)cc(N2CCC(=O)NC2=O)cc1C(C)(C)C` [IA-L1-1.4, (Z)-N-(4-(2-(3-tert-butyl-5-(2,4-dioxotetrahydropyrimidin-1(2H)-yl)-2-methoxyphenyl)-1-fluorovinyl)phenyl)methanesulfonamide], the EC50 in assay [1] and in assay [4] was less than 10 nM in each case. Moreover, the IC50 in assay [2] and in assay [3] was less than 10 nM in each case.
Regarding `COc1c(/C=C/c2ccc(NS(C)(=O)=O)cc2C(=O)N(C)C2CCS(=O)(=O)C2)cc(-n2ccc(=O)[nH]c2=O)cc1C(C)(C)C` (stereo not shown) [IB-L1-1.18, 2-{(E)-2-[3-tert-butyl-5-(2,4-dioxo-3,4-dihydro-2H-pyrimidin-1-yl)-2-methoxy-phenyl]-vinyl}-N-(1,1-dioxo-tetrahydro-1lambda*6*-thiophen-3-yl)-5-methanesulfonylamino-N-methyl-benzamide], the EC50 in assay [1] and in assay [4] was 10 to 100 nM throughout. For the same compound, the IC50 was less than 10 nM in assay [2] and 10 to 100 nM in assay [3].
With `COc1c(C=C(F)c2ccc(NS(C)(=O)=O)cc2)cc(N2CCC(=O)NC2=O)cc1C(C)(C)C` (racemic) [IA-L1-1.21, N-(4-(2-(3-tert-butyl-5-(2,4-dioxotetrahydropyrimidin-1(2H)-yl)-2-methoxyphenyl) 1-fluorovinyl)phenyl)methanesulfonamide], the EC50 in assay [1] and in assay [4] was less than 10 nM in each case. The IC50 in assay [2] and in assay [3] was 10 to 100 nM throughout.
For the compound `CC(C)(C)c1cc(/C=C/c2ccc([N+](=O)[O-])cc2)cc(N2CCC(=O)NC2=O)c1` [IA-L1-1.25, 1-{3-tert-Butyl-5-[(E)-2-(4-nitro-phenyl)-vinyl]-phenyl}-dihydro-pyrimidine-2,4-dione], the IC50 in assay [2] and in assay [3] was greater than 1000 nM throughout.
On to `COc1c(I)cc(-n2ccc(=O)[nH]c2=O)cc1/C=C/c1ccc(NS(C)(=O)=O)cc1` [IB-L1-1.51, (E)-N-(4-(5-(2,4-dioxo-3,4-dihydropyrimidin-1(2H)-yl)-3-iodo-2-methoxystyryl)phenyl)methanesulfonamide], for which the values for the EC50 in assay [1] (setting [5]) and in assay [4] (setting [6]) were 10 to 100 nM and greater than 1000 nM, respectively. Also, the IC50 in assay [2] and in assay [3] was 10 to 100 nM throughout.
Regarding `COc1c(/C=C/c2ccc([N+](=O)[O-])cc2)cc(N2CCC(=O)NC2=O)cc1C(C)(C)C` [IA-L1-1.22, (E)-1-(3-tert-butyl-4-methoxy-5-(4-nitrostyryl)phenyl)dihydropyrimidine-2,4(1H,3H)-dione], the EC50 was 100 to 1000 nM in assay [1] and greater than 1000 nM in assay [4]. Moreover, the IC50 in assay [2] and in assay [3] was 100 to 1000 nM in each case.
`COc1c(/C=C/c2ccc(N(C(C)=O)S(C)(=O)=O)cc2)cc(N2CCC(=O)NC2=O)cc1C(C)(C)C` [IA-L1-1.11, (E)-N-(4-(3-tert-butyl-5-(2,4-dioxotetrahydropyrimidin-1(2H)-yl)-2-methoxystyryl)phenyl)-N-(methylsulfonyl)acetamide]: the 50% effective concentration (EC50) in assay [1] and in assay [4] was less than 10 nM throughout. Moreover, the IC50 in assay [2] and in assay [3] was 10 to 100 nM throughout.
For `COc1c(/C=C/c2ccc(NS(C)(=O)=O)cc2C(=O)N(C)C)cc(-n2ccc(=O)[nH]c2=O)cc1C(C)(C)C` [IB-L1-1.14, 2-{(E)-2-[3-tert-Butyl-5-(2,4-dioxo-3,4-dihydro-2H-pyrimidin-1-yl)-2-methoxy-phenyl]-vinyl}-5-methanesulfonylamino-N,N-dimethyl-benzamide], the EC50 was less than 10 nM in assay [1] and 10 to 100 nM in assay [4]. In addition, the IC50 in assay [2] was less than 10 nM; in assay [3], 10 to 100 nM.
Regarding `COc1c(/C=C/c2ccc(NS(C)(=O)=O)cc2)cc(-n2ccc(=O)[nH]c2=O)cc1-c1cccnc1` [IB-L1-1.53, (E)-N-(4-(5-(2,4-dioxo-3,4-dihydropyrimidin-1(2H)-yl)-2-methoxy-3-(pyridin-3-yl)styryl)phenyl)methanesulfonamide], the IC50 in assay [2] and in assay [3] was greater than 1000 nM in each case.
`COc1c(/C=C/c2ccc(NS(C)(=O)=O)cc2)cc(-n2ccc(=O)[nH]c2=O)cc1-c1ccncc1` [IB-L1-1.55, (E)-N-(4-(5-(2,4-dioxo-3,4-dihydropyrimidin-1(2H)-yl)-2-methoxy-3-(pyridin-4-yl)styryl)phenyl)methanesulfonamide]: the IC50 in assay [2] and in assay [3] was greater than 1000 nM each time.
Turning to `COc1c(/C=C/c2ccc(NS(C)(=O)=O)cc2)cc(-n2cc(F)c(=O)[nH]c2=O)cc1C(C)(C)C` [IB-L1-1.2, (E)-N-(4-(3-tert-butyl-5-(5-fluoro-2,4-dioxo-3,4-dihydropyrimidin-1(2H)-yl)-2-methoxystyryl)phenyl)methanesulfonamide], the EC50 in assay [1] (setting [5]) was 10 to 100 nM. The IC50 in assay [2] and in assay [3] was 10 to 100 nM each time.
